Patent US6855730B2, “3-methylidenyl-2-indolinone modulators of protein kinase” (Sugen, Inc., priority 1998, dated 2005)

Target: EGFR (Homo sapiens, UniProt P00533)
Experiment: EGFR assay (cellular ELISA, NIH 3T3/C7 cells)
Type: cell-based
Design: expressed in transfected cells; host or cells: NIH 3T3/C7
Settings: read-out: cell EGF IC50
Experimental: EGF Receptor kinase activity in cells genetically engineered to express human EGF-R can be measured as described below:
Materials and Reagents. • a. […] 05-101 (UBI) (a monoclonal antibody recognizing an EGFR extracellular domain). • c. Anti-phosphotyosine antibody (anti-Ptyr) (polyclonal). • d. Detection antibody: Goat anti-rabbit IgG horse radish peroxidase conjugate, TAGO, Inc. Burlingame, Calif. • e. TBST buffer:
• Keep solution in dark at 4° C. until used. • h. Stock reagents of:
Pre-coat ELISA Plate • 1. […] Coated plates are good for up to 10 days when stored at 4° C. • 2. On day-of use, remove coating buffer and replace with blocking buffer (5% Carnation Instant NonFat Dry Milk in PBS). Incubate the plate, shaking, at room temperature (about 23° C. to 25° C.) for 30 minutes. Just prior to use, remove blocking buffer and wash plate 4 times with TBST buffer.
Seeding Cells • 1. […] Choose dishes having 80-90% confluence for the experiment. Trypsinize cells and stop reaction by adding 10% CS DMEM medium. Suspend cells in DMEM medium (10% CS DMEM medium) and centrifuge once at 1000 rpm at room temperature for 5 minutes. • 3. Resuspend cells in seeding medium (DMEM, 0.5% bovine serum), and count the cells using trypan blue. Viability above 90% is acceptable. Seed cells in DMEM medium (0.5% bovine serum) at a density of 10,000 cells per well, 100 μl per well, in a 96 well microtiter plate. Incubate seeded cells in 5% CO2 at 37° C. for about 40 hours.
Assay Procedures. • 1. Check seeded cells for contamination using an inverted microscope. Dilute test compounds stock (10 mg/ml in DMSO) 1:10 in DMEM medium, then transfer 5 μl to a test well for a test compounds drug dilution of 1:200 and a final DMSO concentration of 1%. Control wells receive DMSO alone. Incubate in 5% CO2 at 37° C. for one hour. • 2. Prepare EGF ligand: dilute stock EGF in DMEM so that upon transfer of 10 μl dilute EGF (1:12 dilution), 25 nM final concentration is attained. • 3. Prepare fresh 10 ml HNTG* sufficient for 100 μl per well wherein HNTG* comprises: HNTG stock (2.0 ml), milli-Q H2O (7.3 ml), EDTA, 100 mM, pH 7.0 (0.5 ml), Na3VO4 0.5 M (0.1 ml) and Na4(P2O7), 0.2 M (0.1 ml). • 4. Place on ice. • 5. After two hours incubation with drug, add prepared EGF ligand to cells, 10 μl per well, to yield a final concentration of 25 nM. Control wells receive DMEM alone. Incubate, shaking, at room temperature, for 5 minutes. • 6. Remove test compound, EGF, and DMEM. Wash cells twice with PBS. Transfer HNTG* to cells, 100 μl per well. Place on ice for 5 minutes. Meanwhile, remove blocking buffer from other ELISA plate and wash with TBST as described above. • 7. With a pipette tip securely fitted to a micropipettor, scrape cells from plate and homogenize cell material by repeatedly aspirating and dispensing the HNTG* lysis buffer. Transfer lysate to a coated, blocked, and washed ELISA plate. Incubate shaking at room temperature for one hour. • 8. Remove lysate and wash 4 times with TBST. Transfer freshly diluted anti-Ptyr antibody to ELISA plate at 100 μl per well. Incubate shaking at room temperature for 30 minutes in the presence of the anti-Ptyr antiserum (1:3000 dilution in TBST). • 9. Remove the anti-Ptyr antibody and wash 4 times with TBST. Transfer the freshly diluted TAGO 30 anti-rabbit IgG antibody to the ELISA plate at 100 μl per well. Incubate shaking at room temperature for 30 minutes (anti-rabbit IgG antibody: 1:3000 dilution in TBST). • 10. Remove detection antibody and wash 4 times with TBST. Transfer freshly prepared ABTS/H2O2 solution to ELISA plate, 100 μl per well. Incubate at room temperature for 20 minutes. ABTS/H2O2 solution: 1.2 μl 30% H2O2 in 10 ml ABTS stock. • 11. Stop reaction by adding 50 μl 5N H2SO4 (optional), and determine O.D. at 410 nm. • 12. The maximal phosphotyrosine signal is determined by subtracting the value of the negative controls from the positive controls. […]

Sequence of EGFR (P00533 25-1210): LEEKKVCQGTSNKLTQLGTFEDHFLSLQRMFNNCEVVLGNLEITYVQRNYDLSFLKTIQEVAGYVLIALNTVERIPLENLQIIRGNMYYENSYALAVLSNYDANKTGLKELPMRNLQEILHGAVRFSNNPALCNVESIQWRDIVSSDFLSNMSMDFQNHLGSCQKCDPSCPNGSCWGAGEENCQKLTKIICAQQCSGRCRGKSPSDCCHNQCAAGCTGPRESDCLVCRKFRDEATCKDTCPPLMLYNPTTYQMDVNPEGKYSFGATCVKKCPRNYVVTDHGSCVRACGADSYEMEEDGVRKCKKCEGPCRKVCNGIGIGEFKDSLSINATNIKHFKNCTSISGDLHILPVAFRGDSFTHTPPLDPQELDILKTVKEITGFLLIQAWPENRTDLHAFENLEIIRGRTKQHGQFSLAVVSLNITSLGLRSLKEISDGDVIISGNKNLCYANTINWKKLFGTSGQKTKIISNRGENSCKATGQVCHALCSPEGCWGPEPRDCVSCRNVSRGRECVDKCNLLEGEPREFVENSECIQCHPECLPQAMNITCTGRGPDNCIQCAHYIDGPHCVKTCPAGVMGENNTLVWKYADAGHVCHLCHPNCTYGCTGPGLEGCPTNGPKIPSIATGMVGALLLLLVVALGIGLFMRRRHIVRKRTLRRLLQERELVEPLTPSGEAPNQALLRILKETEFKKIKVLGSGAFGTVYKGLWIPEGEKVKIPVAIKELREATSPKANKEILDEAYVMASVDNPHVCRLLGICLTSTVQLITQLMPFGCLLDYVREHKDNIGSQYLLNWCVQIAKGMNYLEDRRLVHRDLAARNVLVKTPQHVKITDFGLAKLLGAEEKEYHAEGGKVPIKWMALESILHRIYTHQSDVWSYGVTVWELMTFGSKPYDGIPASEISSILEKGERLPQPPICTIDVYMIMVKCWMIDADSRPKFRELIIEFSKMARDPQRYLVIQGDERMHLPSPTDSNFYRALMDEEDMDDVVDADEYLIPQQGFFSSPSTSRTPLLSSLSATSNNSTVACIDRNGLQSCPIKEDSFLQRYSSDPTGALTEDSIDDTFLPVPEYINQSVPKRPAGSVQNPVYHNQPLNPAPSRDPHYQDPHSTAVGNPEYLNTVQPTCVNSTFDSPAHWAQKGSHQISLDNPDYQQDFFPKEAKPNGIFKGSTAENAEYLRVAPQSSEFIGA

SMILES	IC50
COc1ccc(C=C2C(=O)Nc3cc(NC(C)=O)ccc32)cc1-c1cccc(NC(C)=O)c1 (mixture of isomers) [Example 63, N-[3-(3′-Acetylamino-6-methoxybiphenyl-3-ylmethylene)-2-oxo-2,3-dihydro-1H-indol-6-yl]-acetamide]	> 100 µM
CC1(C)CCc2cc(C=C3C(=O)Nc4ccc(Br)cc43)ccc2O1 (racemic) [Example 34, 5-Bromo-3-(2,2-dimethylchroman-6-ylmethylene)-1,3-dihydroindol-2-one]	38.2 µM
COc1ccc(/C=C2/C(=O)Nc3ccccc32)cc1C1CCCC1 [Example 10, 3-(3-Cyclopentyl-4-methoxybenzylidene)-1,3-dihydroindol-2-one]	56.1 µM
COc1ccc(/C=C2/C(=O)Nc3ccc(F)cc32)cc1C1CCCC1 [Example 11, 3-(3-Cyclopentyl-4-methoxybenzylidene)-5-fluoro-1,3-dihydroindol-2-one]	72.9 µM
COc1ccc(/C=C2/C(=O)Nc3ccccc32)cc1C1CCCCC1 [Example 12, 3-(3-Cyclohexyl-4-methoxybenzylidene)-1,3-dihydroindol-2-one]	71.9 µM
COc1ccc(/C=C2/C(=O)Nc3ccc(Br)cc32)cc1-c1ccccc1 [Example 13, 5-Bromo-3-(6-methoxybiphenyl-3-ylmethylene)-1,3-dihydroindol-2-one]	30.8 µM
O=C1Nc2ccc(Cl)cc2/C1=C\c1ccc2c(c1)CCO2 [Example 14, 5-Chloro-3-(2,3-dihydro-benzofuran-5-ylmethylene)-1,3-dihydroindol-2-one]	> 100 µM
CC1(C)CCc2cc(/C=C3/C(=O)Nc4ccc(Cl)cc43)ccc2O1 [Example 15, 5-Chloro-3-(2,2-dimethyl-chroman-6-ylmethylene)-1,3-dihydroindol-2-one]	46.5 µM
CC(=O)Nc1ccc2c(c1)NC(=O)/C2=C/c1ccc(OCCN2CCOCC2)c(C2CCCCC2)c1 [Example 16, N-{3-[3-Cyclohexyl-4-(2-morpholin-4-ylethoxy)-benzylidene]-2-oxo-2,3-dihydro-1H-indol-6-yl}-acetamide]	44.5 µM
COc1ccc(/C=C2/C(=O)Nc3cc(NC(C)=O)ccc32)cc1-c1ccsc1 [Example 18, N-[3-(4-Methoxy-3-thiophene-3-ylbenzylidene)-2-oxo-2,3-dihydro-1H-indol-6-yl]-acetamide]	> 100 µM

Results, then the molecule that gave them:

IC50	SMILES
20.1 µM	COc1c(C(C)C)cc(/C=C2/C(=O)Nc3cc(O)ccc32)cc1C(C)C [Example 4, 3-(3,5-Diisopropyl-4-methoxybenzylidene)-6-hydroxy-1,3-dihydroindol-2-one]
21.5 µM	COc1c(C(C)C)cc(/C=C2/C(=O)Nc3ccc(C(C)=O)cc32)cc1C(C)C [Example 5, 5-Acetyl-3-(3,5-diisopropyl-4-methoxybenzylidene)-1,3dihydroindol-2-one]
40.5 µM	COC(=O)c1ccc2c(c1)/C(=C\c1cc(C(C)C)c(OC)c(C(C)C)c1)C(=O)N2 [Example 6, 3-(3,5-Diisopropyl-4-methoxybenzylidene)-2-oxo-2,3-dihydro-1H-indole-5-carboxylic acid methyl ester]
40.4 µM	COc1ccc(/C=C2/C(=O)Nc3ccccc32)cc1C(C)C [Example 7, 3-(3-Isopropyl-4-methoxybenzylidene)-1,3-dihydroindol-2-one]
43.7 µM	COc1cc(C)c(C=C2C(=O)Nc3ccccc32)cc1C(C)C [Example 8, 3-(5-Isopropyl-4-methoxy-2-methylbenzylidene)-1,3-dihydroindol-2-one]
34.6 µM	COc1cc(C)c(C=C2C(=O)Nc3ccc(Cl)cc32)cc1C(C)C [Example 9, 5-Chloro-3-(5-isopropyl-4-methoxy-2-methylbenzylidene)-1,3-dihydroindol-2-one]
68 µM	COc1ccc2c(c1)/C(=C\c1cc(C(C)C)c(OC)c(C(C)C)c1)C(=O)N2 [Example 17, 3-(3,5-Diisopropyl-4-methoxybenzylidene)-5-methoxy-1,3-dihydroindol-2-one]
